The values below are quoted from earlier work in patent US9695323B2, “UV curable solventless antimicrobial compositions” (Becton, Dickinson and Company, priority 2013, dated 2017).

In the data set the test system is Staphylococcus epidermidis.

With `CC(=O)O.CC(=O)O.NC(=N\CCCCCC/N=C(N)/N=C(\N)Nc1ccc(Cl)cc1)/N=C(\N)Nc1ccc(Cl)cc1` [chlorhexidine diacetate], the minimum inhibitory concentration is 2 µg/mL.
